Data reported in patent publication US8859513B2, “Use of 1-beta-D-ribofuranosyl-1H-1,2,4-triazole-3-carboxamide for the treatment of infectious salmon anemia” (Laboratorio de Diagnostico Gam, S.A., priority 2010, dated 2014).
Values after ≈ are worked out from the molar mass of the structure shown. Like-named read-outs stand apart in the source and are kept apart here.

How the values were obtained:
ISA virus [1] = assay: Inhibition assay of the replicative cycle of ISAV in SHK-1 cells (real-time RT-PCR of supernatant); assay type: cell-based, Infectious Salmon Anemia Virus
in vitro = conditions: Atlantic salmon
[2] = tested on: VHSV virus (Viral Hemorrhagic Septicemia Virus); conditions: cited from earlier work
ISA virus [3] = conditions: for hematocrit: untreated infected C3 42.1%
[4] = Toxicity in healthy uninfected smolt fish (tank C2), oral medicated feed; conditions: tank C2, dose of 1600 μg/mL (so in the source), normal 44-64%
RNA viruses = conditions: regularly shown, in general; read-out: EC50 values (effective concentration 50%); cited from earlier work
IPNV = conditions: cited from earlier work
[5] = patients treated with Rebetol; cited from earlier work
ISA virus [6] = conditions: 400 μg/Kg intraperitoneal

SMILES: O=C(O)C1=C[C@@H](O)[C@@H](O)[C@H](O)C1 [shikimic acid]
- viral replication inhibition (ISA virus [1]; up to concentrations of 300 μg/ml, FIG. 2): no viral replication inhibition

SMILES: NC(=O)c1ncn([C@@H]2O[C@H](CO)[C@@H](O)[C@H]2O)n1 [ribavirin, 1-beta-D-ribofuranosyl-1H-1,2,4-triazole-3-carboxamide]
- EC50 (ISA virus [1]; Infectious salmon anemia virus, 72 h, read-out: concentration which inhibits 50% of ISA virus replication (EC50)): ~0.4 µg/mL (≈ 1.64 µM)
- CC50 at 3 days (in vitro): > 400 µg/mL
- RNA inhibition ([2]; 25 μg/ml added at 0 hours post infection, at 10 hours post infection): 99.8%
- inhibition of the virus ([2]; EPC cells, concentrations of 5, 10 and 25 μg/ml): strong inhibition
- viral load in dead fish (ISA virus [3]; highest dose (T1) compared with T2 and untreated C3, FIG. 8): significantly lower
- viral load in intraperitoneally infected fish (ISA virus [3]; highest dose (T1), FIG. 9): lower
- signs at necropsy (ISA virus [3]; infected treated fish of tanks T1 and T2, FIGS. 14 and 15): mild inflammatory signs
- viral load in intraperitoneally infected fish versus untreated (C3) (ISA virus [3]; lowest dose (T2), FIG. 9): practically the same
- hematocrit (ISA virus [3]; tank T1, dose 800 μg/mL (so in the source)): ~45%
- hematocrit (ISA virus [3]; tank T2, dose 400 μg/mL (so in the source)): ~45%
- viral load versus untreated fish (C3) (ISA virus [3]; treated fish T1 (800 μg/kg) and T2 (400 μg/kg), heart, real-time RT-PCR): in all cases lower than that of the untreated fish
- average hematocrit [4]: 54%
- EC50 (RNA viruses): ≥ 1 µM
- effect of the higher dose on rate of death (IPNV; 400 μg): produced no greater decrease in the rate of death
- decrease in rate of dead fish (IPNV; bath exposure once during two hours, increasing concentrations): about 5%
- primary toxicity [5]: triggers hemolytic anemia
- condition of the analyzed organs during necropsies (ISA virus [6]): slight improvement
- viral load over treatment days (ISA virus [6]; heart, FIG. 17): downward trend

SMILES: CCOC(=O)C1=C[C@@H](OC(CC)CC)[C@H](NC(C)=O)[C@@H](N)C1 [oseltamivir]
- inhibition of the replication of ISA virus (ISA virus [1]; concentrations as high as 300 μg/mL, FIG. 1): no more than 60%
